Assay results as given in US20050081267A1, “Novel genes for conditional cell ablation” (Bayer Bioscience N.V., priority 2001, published 2005).

How the values were obtained:
[1] = system: flower buds of the transgenic lines (Tobacco, Nicotiana tabacum) expressing ArgJ deacetylase under TA29 promoter; experiment: Flower bud treatment to induce male-sterile flowers in TA29-ArgJ transgenic tobacco; assay type: in vivo; conditions: 10 μl of 5 mg/ml solution (0.1% Genapol)
Text: The ArgJ coding sequence was recloned into the binary vector pROK1 under control of the TA29 promoter of tobacco. The resulting plasmid pTA29ARG comprising the TA29 promoter, ArgJ coding sequence and 35S terminator was transformed in Agrobacterium tumefaciens (strain ATHV) using standard methods. Tobacco (Nicotiana tabacurn) leaf disks were transformed with the recombinant Agrobacteria according to the method of Horsch et al. (1985, above) and selected on kanamycin medium.
To investigate tapetum-specific expression of the ArgJ deacetylase, flower buds of the transgenic lines were treated with N-acetyl-PPT to induce male-sterile flowers.
In each case only one side of the inflorescence ([…] of the developing flower bud) was treated with N-acetyl PPT, in order to eliminate possible contamination with natural male-sterility phenomena. Treatment was carried out on flower buds of 2 to 4 mm large. Transgenic and control plants were treated with 10 μl of 5 mg/ml N-acetyl PPT solution (0.1% Genapol as wetting agent). After the blooming of the buds (about 9-11 days after conclusion of the treatment) the plants were investigated for the occurrence of male-sterile flowers.

[2] = system: leaves of the transgenic plants (Tobacco, Nicotiana tabacum) expressing ArgJ coding sequence under 35S promoter; experiment: Drop experiment on leaves of 35S-ArgJ transgenic tobacco plants; assay type: in vivo; conditions: 5 μl drops; dose of 4 mg/ml or 1 mg/ml; apparent 4 to 5 days after treatment; seven independent p35SARG transformants
Text: The ArgJ coding sequence was recloned into the binary vector pROK1 under control of the Cauliflower Mosaic Virus 35S promoter sequence. The resulting plasmid p35SARG comprising the 35S promoter, ArgJ coding sequence and 35S terminator was transformed in Agrobacterium tumefaciens (strain ATHV) using standard methods. Tobacco (Nicotiana tabacum) leaf disks were transformed with the recombinant Agrobacteria according to the method of Horsch et al. (1985, Science 227:1229-1231) and selected on kanamycin medium. Seven independent transformants were regenerated. In a drop experiment, the leaves of the transgenic plants (and a number of control plants) were treated with 5 μl each of the following concentrations of N-acetyl- D, L-PPT: 4 mg/ml (=15 mM), 1 mg/ml (=3.75 mM), 0.4 mg/ml (=1.5 mM), 0.1 mg/ml (=0.38 mM). The treatment sites were examined for lightening or necrosis formation.

## CC(=O)NC(CCP(C)(=O)O)C(=O)O [N-acetyl- D, L-PPT, N-acetyl-phosphinothricin]
[1]; control and wild-type plants
  occurrence of male-sterile flowers, control or wild-type tobacco flowers: no reaction was seen
[1]; flower buds 2 to 4 mm, examined about 9-11 days after treatment, pTA29ARG transgenic plants
  occurrence of male-sterile flowers from drop-treated flowerbuds, transgenic plants: In three out of seven transgenic plants, male-sterile flowers developed
[2]
  lightening or necrosis formation at treatment sites (leaf damage): Four plants showed clearly visible leaf damage
